The Kd is the free concentration of one partner at which half of the binding sites on the other are occupied at equilibrium, for simple one-to-one binding.

From patent publication US20260272925A1, “CDK2 MODULATORS, COMPOSITIONS, AND METHODS OF USE THEREOF” (Type6 Therapeutics, Inc., priority 2023, published 2026) come the findings set out here.

A value given as a limit tells only on which side of the number the result lay.

The assay deals with T1, Cdk2(2-298) (Homo sapiens, UniProt P24941).
T1 construct: Biotinylated N-terminal avi-tagged Cdk2(2-298) or Cdk1(1-297) was immobilized
The experiment in a line: Surface Plasmon Resonance (SPR), Biacore 8K, compound interaction with immobilized kinase. In kind it is binding. The following applies: biotinylated N-terminal avi-tagged protein on Chip SA, single-cycle kinetics (SCK, "S") mode, 1% DMSO, pH 7.5, read-out: Activity rating* (KD). As for the experimental part: Surface Plasmon Resonance (SPR) Method Description
Compound interaction was profiled using a Biacore 8K instrument (Cytiva). Biotinylated N-terminal avi-tagged Cdk2(2-298) or Cdk1(1-297) was immobilized on a series S sensor Chip SA at a capture level between 2500 RU and 3000 RU (Cdk2) or 7000 RU (Cdk1) in buffer (25 mM HEPES, 150 mM NaCl, 0.05% Tween20, pH 7.5). A compound dilution plate (8 concentrations, 3-fold dilution) in DMSO was prepared (100× assay concentration). From this plate, compound DMSO stock solution was transferred into buffer, yielding a final DMSO concentration of 1% in assay. The remaining buffer was supplemented with 1% DMSO. Compounds were injected in a series of increasing concentrations in multi-cycle kinetics (MCK, “M”) or single-cycle kinetics (SCK, “S”) mode at a flow rate of 30 μl/min for 120 sec and dissociation was profiled for 180 sec (MCK) or 1800 sec (SCK). Data were analysed using Biacore Insight Evaluation Software (Cytiva).

Turning to `O=S(=O)(Nc1ccc(Oc2nccnc2-c2ccnc(N[C@H]3CCCNC3)n2)c(F)c1)c1ccccc1Cl` [Compound 390, N-[3-Fluoro-4-[[3-[2-[[(3S)-3-piperidinyl]amino]pyrimidin-4-yl]-2-pyrazinyl]oxy]phenyl]2-chlorobenzenesulfonamide], the dissociation constant Kd was in the range of 11 to 100 nM.
On to `O=S(=O)(Nc1ccc(Oc2ncsc2-c2ccnc(N[C@H]3CCCNC3)n2)c(F)c1)c1ccccc1Cl` [Compound 391, N-[3-Fluoro-4-[[5-[2-[[(3S)-3-piperidinyl]amino]pyrimidin-4-yl]-4-thiazolyl]oxy]phenyl]2-chlorobenzenesulfonamide], for which the equilibrium dissociation constant (Kd) is at most 10 nM.
The result for `N[C@H]1CC[C@H](Nc2nccc(-c3nccnc3Oc3ccc(NS(=O)(=O)c4ccccc4Cl)cc3F)n2)CC1` [Compound 402, N-[4-[(1r,4r)[3-[2-[(4-Aminocyclohexyl)amino]pyrimidin-4-yl]pyrazin-2-yl]oxy]-3-fluorophenyl]2-chlorobenzenesulfonamide] reads 100 to 1000 nM; that for `N[C@H]1CC[C@H](Nc2nccc(-c3scnc3Oc3ccc(NS(=O)(=O)c4ccccc4Cl)cc3F)n2)CC1` [Compound 403, N-[4-[(1r,4r)[5-[2-[(4-Aminocyclohexyl)amino]pyrimidin-4-yl]thiazol-4-yl]oxy]-3-fluorophenyl]2-chlorobenzenesulfonamide], at most 10 nM.
On to `N[C@H]1CC[C@H](Nc2nccc(-c3cccnc3Oc3ccc(NS(=O)(=O)c4ccccc4Cl)cc3F)n2)CC1` [Compound 410, N-[4-[(1r,4r)[3-[2-[(4-Aminocyclohexyl)amino]pyrimidin-4-yl]pyrid-2-yl]oxy]-3-fluorophenyl]2-chlorobenzenesulfonamide], for which the Kd is at most 10 nM.
For the compound `N[C@H]1CC[C@H](Nc2nccc(-c3cccnc3Oc3ccc(NS(=O)(=O)c4ccccc4Cl)cc3)n2)CC1` [Compound 411, N-[4-[(1r,4r)[3-[2-[(4-Aminocyclohexyl)amino]pyrimidin-4-yl]-2-pyridyl]oxy]phenyl]2-chlorobenzenesulfonamide], the Kd lay within 11 to 100 nM.
For the compound `O=S(=O)(Nc1ccc(Oc2ncccc2-c2ccnc(N[C@H]3CCCNC3)n2)cc1)c1ccccc1Cl` [Compound 412, N—((S)-4-((3-(2-(Piperidin-3-ylamino)pyrimidin-4-yl)pyridin-2-yl)oxy)phenyl) 2-chlorobenzenesulfonamide], the dissociation constant (Kd) lay in the range of 11 to 100 nM.
As to `O=S(=O)(Nc1ccc(Oc2ncccc2-c2ccnc(N[C@H]3CCCNC3)n2)c(F)c1)c1ccccc1Cl` [Compound 413, N—((S)-4-((3-(2-(piperidin-3-ylamino)pyrimidin-4-yl)pyridin-2-yl)oxy)-3-fluorophenyl) 2-chlorobenzenesulfonamide], the Kd was at most 10 nM.
Turning to `N[C@H]1CC[C@H](Nc2nccc(-c3cccnc3Oc3cc(Cl)c(NS(=O)(=O)c4ccccc4Cl)cc3F)n2)CC1` [Compound 414, N-[4-[(1r,4r)[3-[2-[(4-Aminocyclohexyl)amino]pyrimidin-4-yl]pyrid-2-yl]oxy]-6-chloro-3-fluorophenyl]2-chlorobenzenesulfonamide], the dissociation constant (Kd) is at most 10 nM.
`N[C@H]1CC[C@H](Nc2nccc(-c3cccnc3Oc3ccc(NS(=O)(=O)c4cccc5ccccc45)cc3F)n2)CC1` [Compound 415, N-[4-[(1r,4r)[3-[2-[(4-Aminocyclohexyl)amino]pyrimidin-4-yl]pyrid-2-yl]oxy]-3-fluorophenyl]naphthalene-1-sulfonamide]: the Kd lay within 11 to 100 nM.
With `N[C@H]1CC[C@H](Nc2nccc(-c3cccnc3Oc3cc(Cl)c(NS(=O)(=O)c4cccc5ccccc45)cc3F)n2)CC1` [Compound 416, N-[4-[(1r,4r)[3-[2-[(4-Aminocyclohexyl)amino]pyrimidin-4-yl]pyrid-2-yl]oxy]-6-chloro-3-fluorophenyl]naphthalene-1-sulfonamide], the Kd lay within 11 to 100 nM.
Take `N[C@H]1CC[C@H](Nc2nccc(-c3cccnc3Oc3ccc(NS(=O)(=O)c4ccc5ccccc5c4)cc3F)n2)CC1` [Compound 417, N-[4-[(1r,4r)[3-[2-[(4-Aminocyclohexyl)amino]pyrimidin-4-yl]pyrid-2-yl]oxy]-3-fluorophenyl]naphthalene-2-sulfonamide]: the dissociation constant Kd fell in the range of 100 to 1000 nM.
